Measured values published in patent publication US20220175795A1, “USE OF FULVESTRANT FOR THE THERAPEUTIC CARE OF CENTRAL CORE DISEASE” (UNIVERSITÉ GRENOBLE ALPES, priority 2019, published 2022).
“Also recorded” adds a separate entry of the source.

Key:
[1] = system: RyR1^Rec mice (model of central core disease); test: Animal grip test (gripping time on inverted grid) in inducible RyR1 KO mice; type: in vivo
Experimental: For this study, an inducible and non-lethal model of KO mice for RyR1 developed in the laboratory was used. In these mice, exons 9 to 11 of the RYR1 gene are flanked by LoxP sites on both alleles (RYR1 fl/fl).
KO was induced by intraperitoneal injections of tamoxifen (Sigma) eight weeks after birth, at 1 mg/day for five days. It is important to note that all animals have received these injections, whether they have the HSA-Cre allele or not.
Exclusively in animals having the HSA-Cre allele, tamoxifen (TAM) causes the translocation of the Cre recombinase to the nucleus, thus allowing the recombination of the LoxP sites and the deletion of exons 9-11 from the RYR1 gene (FIG. 1). In order to improve the understanding, the mice in which the recombination cannot be made will be referred to as the RyR1^Ctrl mice in the following document. The recombinant mice after intraperitoneal administration of TAM will be referred to as RyR1^Rec mice.
For the treatment of animals, fulvestrant was prepared from a commercial solution of Faslodex 250 mg (AstraZeneca). This solution was diluted in physiological serum and 0.27 mg of fulvestrant was injected to each mouse (weight of 20 g) in 50 μl volume. The injections were carried out intramuscularly in the quadriceps once per week.
In order to evaluate the muscular strength of the animals, the mice were placed on a grid which was then turned upside down. The duration during which the mice remain gripped at the grid has been timed to a limit of 300 seconds. This measurement was carried out in a weekly manner over the entire population of mice of the study.
The strength of the animals is followed by a grip test (gripping test) once a week, just before the injections.

human control cells CTRL = test: Calcium imaging (Fluo-4, KCl 140 mM stimulation) on human control muscle cells; type: cell-based; conditions: 7 days in differentiation medium
Experimental: The CTRL cells are immortalized human cells from a biopsy of a healthy subject having no calcium release abnormality.
(§1) The medium has been renewed 4 days after placing in the differentiation medium.
(§2) For human cells, the shape of the cells not allowing them to be distinguished individually in an accurate manner, the measurements were made on a single region of interest per well corresponding to the total surface covered by the myotubes. 4 to 6 wells were measured for each repetition of the experiment.
(§3) Fulvestrant was tested on human muscle cells having or not a calcium release defect (human cells CTRL or MELA), by incubation of 7 days in differentiation medium.

[2] = system: recombinant RyR1 cells (RyR1-Rec murine myotubes); conditions: 72 h, 0.1 µM
Experimental: The satellite cells were isolated from the skeletal muscles of the lower limbs of the neonate mice RyR1^Ctrl according to the procedure described in Marty et al, 2000.
The cells were seeded in 96 well plates (75,000 cells/well) previously coated with laminin. The cells were first cultured in the proliferation medium composed of Ham's F-10 Nutrient Mix (Life Technologies), 20% fetal calf serum (Life Technologies), 2% Ultroser G (PALL) and 2% Penicillin-Streptomycin (Life Technologies).
In order to induce floxed RyR1 gene recombination, the cells thus have been transduced 12 hours after seeding with adenoviruses allowing the expression of Cre recombinase, AdV-Cre (Utah University), to a multiplicity of infections (multiplicity of infection, or MOI) of 64. […]
The films were analyzed by the Fiji (Schindelin et al., 2012) and Prim (GraphPad) softwares.
For murine cells, the fluorescence measurements were performed on regions of interest each corresponding to a myotube, with several tens of myotubes measured for each repetition of the experiment.
The intensity of the calcium release was evaluated in response to a stimulation by KCl 140 mM (mimicking a depolarization at ˜0 mV). […]

[3] = system: immortalized human MELA cells; test: Calcium imaging (Fluo-4, KCl 140 mM stimulation) on cells of a central core disease patient; type: cell-based; conditions: 7 days in differentiation medium, not statistically significant
From the text: The MELA cells are immortalized human cells derived from a biopsy of a patient suffering from central core disease, including in particular a quantitative defect of RyR1 and a calcium release defect (Rendu et al., 2013). These cells were immortalised by the team of Vincent Mouly (Institute of Myology, Paris).
as §1, §2, §3

Compound: C[C@]12CC[C@@H]3c4ccc(O)cc4C[C@@H](CCCCCCCCC[S+]([O-])CCCC(F)(F)C(F)(F)F)[C@H]3[C@@H]1CC[C@@H]2O (some centres unmarked) [fulvestrant]
- strength (gripping time) vs untreated mice ([1]; female RyR1^Rec mice, intramuscular injection once a week, grip test weekly (limit 300 seconds)): very sharp improvement; also recorded: significantly improved
- strength over the entire duration of the treatment ([1]; mice with induced central core disease, 75 days of treatment): did not lose strength
- effect on calcium release (human control cells CTRL; fulvestrant 100 nM): has no effect; also recorded: does not have an effect
- effect on calcium release (human control cells CTRL; fulvestrant 250 nM): has no effect; also recorded: does not have any effect
- increase of the calcium release peak vs untreated cells [2]: 28%
- magnitude of the calcium release peak (Fluo-4 fluorescence) [2]: 0.40+/−0.04
- effect on calcium release ([3]; fulvestrant 100 nM): tends to increase calcium release; also recorded: tendency to improve the calcium release
- effect on calcium release ([3]; fulvestrant 250 nM): tends to increase the release of calcium
